Data reported in patent US12441733B2, “Substituted 2,4-dioxotetrahydropyrimidines as intermediates in the synthesis of bruton's tyrosine kinase inhibitors” (Novartis AG, priority 2018, dated 2025).

Target: T1, IKZF3-GFP (Homo sapiens, UniProt Q96SW2+Q9UKT9)
T1 construct: expressed in transfected cells; host or cells: HEK293A (Invitrogen R70507), lentiviral transduction with pLenti6-IKZF3-GFP-Ires-RFP, blasticidin selection
Experiment: IKZF3-GFP protein abundance flow cytometry assay in HEK293A cells
Format: cell-based
Conditions: HEK293A IKZF3-GFP-iresRFP cells, 24 h; for DC50: GFP signal by flow cytometry; for IKZF3 deg Amax: % protein remaining at maximum degradation
Experimental: BTK-GFP and IKZF3-GFP protein abundance flow cytometry assay in HEK293A cells:
Degradation of BTK or IKZF3 was measured in HEK293A cells (Invitrogen R70507) expressing either BTK-GFP and RFP or IKZF3-GFP and RFP from a stably integrated bicistronic BTK-GFP-iresRFP or IKZF3-GFP-iresRFP construct, respectively. Reduction of the GFP signal measured by flow cytometry served as readout for BTK or IKZF3 degradation after degrader treatment.
By analogy the bicistronic pLenti6-IKZF3-GFP-iresRFP was engineered by gateway cloning of IKZF3 from a pENTR221-IKZF3(STOP-Leu) construct into the previously described pLenti6-DEST-GFP-Ires-RFP vector using the LR Clonase kit (Invitrogen 11791-019) according to the manufacturer's manual. All vectors described have been sequenced for verification.
ii) Engineering of Stably Expressing 293A BTK-GFP-Ires-RFP and IKZF3-GFP-Ires-RFP Sensor Cells
293A BTK-GFP-Ires-RFP and IKZF3-GFP-ires-RFP sensor cells were generated by lentiviral vector transduction using the pLenti6-BTK-GFP-Ires-RFP or pLenti6-IKZF3-GFP-Ires-RFP sensor construct described before. Lentiviral particles were produced in HEK293FT cells (Invitrogen R70007) by co-transfection of 500 ng pLenti6-BTK-GFP-ires-RFP or pLenti6-IKZF3-GFP-Ires-RFP, 500 ng delta8.71 and 200 ng pVSVG diluted in 100 μl OptiMEM serum free medium (Invitrogen #11058-021) that was mixed after 5 min preincubation with 3 μl of Lipofectamine2000 (Invitrogen #11668-019) in 97 μl OptiMEM serum free medium. The mix was incubated for another 20 min at RT and then added on 1 ml of a freshly prepared suspension of HEK293FT cells in a well of a 6-well plate (concentration 1.2×10^6 cells/ml). 1 day after transfection, the medium was replaced with 1.5 ml of complete growth medium (DMEM high Glucose+10% FCS+1% L-Glutamine+1% NEAA+1% NaPyr.). 48 h post transfection supernatant containing viral transducing particles was collected and frozen at −80° C.
Two days before transduction with viral particles 1×10^5 HEK293A cells (Invitrogen R70507) were seeded in 2 ml growth medium in a well of a 6-well plate. Infection was performed with 90 μl of collected supernatant containing viral transducing particles in 1 ml medium including 8 μg/ml polybrene. 24 h post infection, stably transfected cells were selected with blasticidin at a concentration of 8 μg/ml.
Iii) Quantitative BTK-GFP and IKZF3-GFP Abundance Measurements
Stable HEK293A-BTK-GFP-iresRFP cells were maintained in complete growth medium (DMEM high Glucose+10% FCS+1% L-Glutamine+1% NEAA+1% NaPyr.) with passaging performed twice per week. On Day 0, HEK293A-BTK-GFP-iresRFP or HEK293A-IKZF3-GFP-iresRFP and HEK293A-iresRFP cells were seeded at 10,000 cells/well in a 96-well microtiter plate in 260 μl complete medium. On Day 1, cells were treated in duplicate with 10-point 1:3 dilution series of compound using the HP D300 Digital Dispenser (Tecan). DMSO concentrations were normalized across the plate to 0.1%. On Day 2, after 24 h of incubation at 37° C., treatment media was discarded, cells rinsed with 100 μl/well PBS and then detached using 40 μl trypsin/well for 5 min. Trypsin was neutralized with 100 μl/well PBS+20% FCS). Flow cytometry was performed on the samples using the BD FACS CANTO II (Becton Dickinson). Cell identification was then performed using forward (FSC) vs. side scatter (SSC) plots. […] Median GFP values for 5,000 single cells are used to determine BTK levels. Median GFP values from HEK293A-iresRFP are used as a background signal and thus defining 0% BTK signal. Median GFP values from DMSO treated HEK293A-BTK-GFP-iresRFP or HEK293A-IKZF3-GFP-iresRFP are used to define 100% BTK signal for subsequent DC50 curves (concentration at 50% BTK degradation).

T1 sequence (Q9UKT9 whole entry): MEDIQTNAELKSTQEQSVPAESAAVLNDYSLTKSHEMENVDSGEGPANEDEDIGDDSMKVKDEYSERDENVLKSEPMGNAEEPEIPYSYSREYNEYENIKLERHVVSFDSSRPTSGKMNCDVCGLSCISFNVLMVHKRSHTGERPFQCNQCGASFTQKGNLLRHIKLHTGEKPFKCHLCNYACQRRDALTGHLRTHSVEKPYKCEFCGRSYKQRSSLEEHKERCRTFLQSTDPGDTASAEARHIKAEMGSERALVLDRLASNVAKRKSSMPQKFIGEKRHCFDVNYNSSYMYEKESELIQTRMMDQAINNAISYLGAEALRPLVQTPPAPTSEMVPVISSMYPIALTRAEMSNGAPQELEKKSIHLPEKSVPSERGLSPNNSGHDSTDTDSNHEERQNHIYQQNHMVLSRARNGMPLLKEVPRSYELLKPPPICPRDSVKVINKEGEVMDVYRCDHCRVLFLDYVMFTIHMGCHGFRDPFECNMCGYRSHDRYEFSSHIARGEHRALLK
T1 sequence (Q96SW2 whole entry): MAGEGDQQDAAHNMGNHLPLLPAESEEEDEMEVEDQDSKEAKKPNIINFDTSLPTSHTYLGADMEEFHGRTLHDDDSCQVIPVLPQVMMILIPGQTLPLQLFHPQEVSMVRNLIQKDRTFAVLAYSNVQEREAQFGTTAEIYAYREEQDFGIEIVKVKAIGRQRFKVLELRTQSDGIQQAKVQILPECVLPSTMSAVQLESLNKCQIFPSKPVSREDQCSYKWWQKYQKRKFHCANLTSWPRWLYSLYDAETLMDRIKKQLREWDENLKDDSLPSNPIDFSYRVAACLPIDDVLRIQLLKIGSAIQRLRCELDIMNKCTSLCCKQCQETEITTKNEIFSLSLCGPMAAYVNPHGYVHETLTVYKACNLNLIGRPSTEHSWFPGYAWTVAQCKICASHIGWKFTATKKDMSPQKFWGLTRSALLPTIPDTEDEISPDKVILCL
T1 sequence (Q16531 whole entry partner): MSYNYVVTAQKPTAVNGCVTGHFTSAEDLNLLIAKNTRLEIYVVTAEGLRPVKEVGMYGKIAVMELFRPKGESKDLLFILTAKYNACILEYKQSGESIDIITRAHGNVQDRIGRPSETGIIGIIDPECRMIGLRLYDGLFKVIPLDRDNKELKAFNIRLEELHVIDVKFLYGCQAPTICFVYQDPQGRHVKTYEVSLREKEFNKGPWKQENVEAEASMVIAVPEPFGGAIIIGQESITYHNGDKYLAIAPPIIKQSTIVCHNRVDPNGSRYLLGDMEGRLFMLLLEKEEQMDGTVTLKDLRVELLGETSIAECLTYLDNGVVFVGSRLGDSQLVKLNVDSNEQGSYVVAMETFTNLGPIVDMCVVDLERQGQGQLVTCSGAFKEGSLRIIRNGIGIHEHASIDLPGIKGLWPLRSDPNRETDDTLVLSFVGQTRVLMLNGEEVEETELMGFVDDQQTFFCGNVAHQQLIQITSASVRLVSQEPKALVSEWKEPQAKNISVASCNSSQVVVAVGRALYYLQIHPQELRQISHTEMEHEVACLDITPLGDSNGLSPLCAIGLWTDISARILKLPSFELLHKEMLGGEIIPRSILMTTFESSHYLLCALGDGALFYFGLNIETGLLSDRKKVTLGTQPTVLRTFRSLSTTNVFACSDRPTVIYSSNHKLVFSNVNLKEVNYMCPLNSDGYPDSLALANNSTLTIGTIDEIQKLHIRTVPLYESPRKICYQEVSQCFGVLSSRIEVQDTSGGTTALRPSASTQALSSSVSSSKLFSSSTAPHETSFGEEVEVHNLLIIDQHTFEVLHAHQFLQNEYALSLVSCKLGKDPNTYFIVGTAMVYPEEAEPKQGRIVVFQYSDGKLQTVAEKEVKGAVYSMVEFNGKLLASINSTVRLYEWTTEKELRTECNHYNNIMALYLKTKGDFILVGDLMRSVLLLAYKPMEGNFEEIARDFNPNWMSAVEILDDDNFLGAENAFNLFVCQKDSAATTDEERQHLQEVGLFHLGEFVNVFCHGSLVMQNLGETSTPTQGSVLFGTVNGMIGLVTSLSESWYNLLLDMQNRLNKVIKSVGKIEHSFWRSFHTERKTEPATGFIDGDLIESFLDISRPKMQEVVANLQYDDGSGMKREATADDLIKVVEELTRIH

Structure (SMILES) | DC50 | IKZF3 deg Amax
Cc1c(NC(=O)c2ccc(C(C)(C)O)cc2F)cc(F)cc1-c1ncnc2[nH]c(-c3ccc(CCN4CCC5(CC4)CCN(C(=O)c4cccc(N6CCC(=O)NC6=O)c4)CC5)cc3)cc12 [Compound 12, N-(3-(6-(4-(2-(9-(3-(2,4-Dioxotetrahydropyrimidin-1(2H)-yl)benzoyl)-3,9-diazaspiro[5,5]undecan-3-yl)ethyl)phenyl)-7H-pyrrolo[2,3-d]pyrimidin-4-yl)-5-fluoro-2-methylphenyl)-2-fluoro-4-(2-hydroxypropan-2-yl)benzamide] | > 1100 nM | 100.4%
Cc1ccc(C(=O)N(C)CCCCCNCc2ccc(-c3cc4c(-c5cc(F)cc(NC(=O)c6ccc(C(C)(C)O)cc6F)c5C)ncnc4[nH]3)cc2)cc1N1CCC(=O)NC1=O [Compound 30, 3-(2,4-Dioxotetrahydropyrimidin-1(2H)-yl)-N-(5-((4-(4-(5-fluoro-3-(2-fluoro-4-(2-hydroxypropan-2-yl)benzamido)-2-methylphenyl)-7H-pyrrolo[2,3-d]pyrimidin-6-yl)benzyl)amino)pentyl)-N,4-dimethylbenzamide] | > 3300 nM | 101.1%
COc1ccc(C(=O)N2CCC(OC3CCN(CCc4ccc(-c5cc6c(-c7cc(F)cc(NC(=O)c8ccc(C(C)(C)O)cc8F)c7C)ncnc6[nH]5)cc4)CC3)CC2)cc1N1CCC(=O)NC1=O [Compound 34, N-(3-(6-(4-(2-(4-((1-(3-(2,4-Dioxotetrahydropyrimidin-1(2H)-yl)-4-methoxybenzoyl)piperidin-4-yl)oxyl)piperidin-1-yl)ethyl)phenyl)-7H-pyrrolo[2,3-d]pyrimidin-4-yl)-5-fluoro-2-methylphenyl)-2-fluoro-4-(2-hydroxypropan-2-yl)benzamide] | > 10000 nM | 94.7%
CCOc1ccc(C(=O)N2CCC3(CCN(Cc4ccc(-c5cc6c(-c7cc(F)cc(NC(=O)c8ccc(C(C)(C)O)cc8F)c7C)ncnc6[nH]5)cc4)CC3)CC2)cc1N1CCC(=O)NC1=O [Compound 4, N-(3-(6-(4-((9-(3-(2,4-Dioxotetrahydropyrimidin-1(2H)-yl)-4-ethoxybenzoyl)-3,9-diazaspiro[5.5]undecan-3-yl)methyl)phenyl)-7H-pyrrolo[2,3-d]pyrimidin-4-yl)-5-fluoro-2-methylphenyl)-2-fluoro-4-(2-hydroxypropan-2-yl)benzamide] | > 1100 nM | 101.3%

Other lines, results leading:

DC50 | IKZF3 deg Amax | Structure (SMILES)
> 5500 nM | 99.8% | COc1ccc(C(=O)N2CCC3(CCN(CCc4ccc(-c5cc6c(-c7cc(F)cc(NC(=O)c8ccc(C(C)(C)O)cc8F)c7C)ncnc6[nH]5)cc4)CC3)CC2)cc1N1CCC(=O)NC1=O [Compound 31, N-(3-(6-(4-(2-(9-(3-(2,4-Dioxotetrahydropyrimidin-1(2H)-yl)-4-methoxybenzoyl)-3,9-diazaspiro[5.5]undecan-3-yl)ethyl)phenyl)-7H-pyrrolo[2,3-d]pyrimidin-4-yl)-5-fluoro-2-methylphenyl)-2-fluoro-4-(2-hydroxypropan-2-yl)benzamide]
> 1100 nM | 99.7% | Cc1c(NC(=O)c2ccc(C(C)(C)O)cc2F)cc(F)cc1-c1ncnc2[nH]c(-c3ccc(CCN4CCC5(CC4)CCN(C(=O)c4ccc(F)c(N6CCC(=O)NC6=O)c4)CC5)cc3)cc12 [Compound 47, N-(3-(6-(4-(2-(9-(3-(2,4-dioxotetrahydropyrimidin-1(2H)-yl)-4-fluorobenzoyl)-3,9-diazaspiro[5.5]undecan-3-yl)ethyl)phenyl)-7H-pyrrolo[2,3-d]pyrimidin-4-yl)-5-fluoro-2-methylphenyl)-2-fluoro-4-(2-hydroxypropan-2-yl)benzamide]
> 1100 nM | 102.2% | Cc1ccc(C(=O)N2CCC3(CCN(Cc4ccc(-c5cc6c(-c7cc(F)cc(NC(=O)c8ccc(C(C)(C)O)cc8F)c7C)ncnc6[nH]5)cc4)CC3)CC2)cc1N1CCC(=O)NC1=O [Compound 27, N-(3-(6-(4-((9-(3-(2,4-Dioxotetrahydropyrimidin-1(2H)-yl)-4-methylbenzoyl)-3,9-diazaspiro[5.5]undecan-3-yl)methyl)phenyl)-7H-pyrrolo[2,3-d]pyrimidin-4-yl)-5-fluoro-2-methylphenyl)-2-fluoro-4-(2-hydroxypropan-2-yl)benzamide]
